Paper PMC5012908 (Acta biomaterialia, 2016)

Columns and labels:
[1] = Circular dichroism of β-peptide solutions; assay type: physicochemical; conditions: 0.1 mM peptide, 20 °C, consistent with 14-helicity without aggregation
[2] = read-out: IC50 (antifungal); isotonic glucose phosphate buffer; cited from earlier work

Substance | CD minimum in methanol [1] | IC50 [2]
Coumarin-linker-(ACHC-β^3hVal-β^3hLys)3 [β-peptide 1] | 214 nm | 
magainin-2 |  | 300 nM
